# Data from ChEMBL document CHEMBL1255551, “Synthesis and biological evaluation of C-2 halogenated analogs of salvinorin A” (Bioorg Med Chem Lett, 2010).
# Calls of active or inactive are those of the source. The calls are words filed in the database; no cut-off is given here.
# Key:
# [1] = biological target: T1, Kappa-type opioid receptor (Homo sapiens, UniProt P41145); assay: Displacement of [3H]diprenorphine from human kappa opioid receptor expressed in CHO cells at 3 uM; format: cell-based
# [2] = biological target: T1, Kappa-type opioid receptor; assay: Agonist activity at human kappa opioid receptor expressed in CHO cells assessed as increase of [35S]GTPgammaS binding at 240 nM relative to U50488H; format: functional, cell-based
# [3] = biological target: T1, Kappa-type opioid receptor; assay: Agonist activity at human kappa opioid receptor expressed in CHO cells assessed as increase of [35S]GTPgammaS binding; format: functional, cell-based
# [4] = biological target: Delta-type opioid receptor (Mus musculus) (UniProt P32300); assay: Displacement of [3H]diprenorphine from mouse FLAG-tagged delta opioid receptor expressed in CHO cells at 3 uM; format: cell-based
# [5] = biological target: T1, Kappa-type opioid receptor; assay: Displacement of [3H]diprenorphine from human kappa opioid receptor expressed in CHO cells; format: cell-based
# [6] = biological target: Mu-type opioid receptor (Rattus norvegicus) (UniProt P33535); assay: Displacement of [3H]diprenorphine from rat mu opioid receptor expressed in CHO cells at 3 uM; format: cell-based
# Chain of Mu-type opioid receptor (Rattus norvegicus) (P33535 whole entry): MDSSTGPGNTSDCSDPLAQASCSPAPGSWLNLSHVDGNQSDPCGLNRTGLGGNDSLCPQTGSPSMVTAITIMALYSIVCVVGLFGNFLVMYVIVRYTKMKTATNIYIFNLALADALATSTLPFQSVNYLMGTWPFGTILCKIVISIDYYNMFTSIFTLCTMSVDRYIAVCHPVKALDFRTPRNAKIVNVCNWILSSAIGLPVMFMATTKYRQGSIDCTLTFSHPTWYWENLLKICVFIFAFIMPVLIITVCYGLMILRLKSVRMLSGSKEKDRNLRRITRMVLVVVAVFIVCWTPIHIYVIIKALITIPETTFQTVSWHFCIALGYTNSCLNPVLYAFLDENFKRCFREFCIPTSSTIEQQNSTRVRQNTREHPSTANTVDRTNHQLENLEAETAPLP
# Chain of Delta-type opioid receptor (Mus musculus) (P32300 whole entry): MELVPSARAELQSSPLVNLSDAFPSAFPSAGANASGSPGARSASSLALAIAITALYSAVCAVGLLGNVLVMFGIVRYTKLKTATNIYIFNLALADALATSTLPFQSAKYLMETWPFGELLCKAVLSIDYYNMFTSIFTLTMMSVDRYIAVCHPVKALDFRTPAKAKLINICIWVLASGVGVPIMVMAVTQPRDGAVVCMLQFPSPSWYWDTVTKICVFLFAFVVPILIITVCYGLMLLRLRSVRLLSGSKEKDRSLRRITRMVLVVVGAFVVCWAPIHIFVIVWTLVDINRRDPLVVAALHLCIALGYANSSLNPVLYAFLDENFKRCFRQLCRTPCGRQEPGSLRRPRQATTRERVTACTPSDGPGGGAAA
# T1 sequence (P41145 whole entry): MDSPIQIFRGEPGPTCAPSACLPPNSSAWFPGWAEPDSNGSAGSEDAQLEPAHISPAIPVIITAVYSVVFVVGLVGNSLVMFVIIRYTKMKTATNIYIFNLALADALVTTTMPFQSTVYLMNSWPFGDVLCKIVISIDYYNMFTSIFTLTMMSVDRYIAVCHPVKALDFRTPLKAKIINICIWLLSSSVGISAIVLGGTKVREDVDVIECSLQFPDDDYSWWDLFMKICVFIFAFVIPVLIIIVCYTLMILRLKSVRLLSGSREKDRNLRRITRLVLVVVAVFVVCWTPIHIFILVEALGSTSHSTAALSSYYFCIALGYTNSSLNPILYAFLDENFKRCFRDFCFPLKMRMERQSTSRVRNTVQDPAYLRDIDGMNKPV
Compound,inhibition [1],Emax [2],EC50 [3],Activity [4],Ki [5],Activity [6]
COC(=O)[C@@H]1C[C@H](Br)C(=O)[C@H]2[C@@]1(C)CC[C@H]1C(=O)O[C@H](c3ccoc3)C[C@]21C,> 50%,87%,1970 nM,inactive,422 nM,inactive
COC(=O)[C@@H]1C[C@H](OC(C)=O)C(=O)[C@H]2[C@@]1(C)CC[C@H]1C(=O)O[C@H](c3ccoc3)C[C@]21C,> 50%,–,–,inactive,–,inactive
COC(=O)[C@@H]1C[C@@H](I)C(=O)[C@H]2[C@@]1(C)CC[C@H]1C(=O)O[C@H](c3ccoc3)C[C@]21C,> 50%,46%,239 nM,inactive,245 nM,inactive
COC(=O)[C@@H]1CC(C(=O)O)C(=O)[C@H]2[C@@]1(C)CC[C@H]1C(=O)O[C@H](c3ccoc3)C[C@]21C (stereo partly drawn),> 50%,103%,83.3 nM,inactive,24.3 nM,inactive
COC(=O)[C@@H]1C[C@H](F)C(=O)[C@H]2[C@@]1(C)CC[C@H]1C(=O)O[C@H](c3ccoc3)C[C@]21C,> 50%,–,–,inactive,> 1000 nM,inactive
COC(=O)[C@@H]1C[C@@H](Cl)C(=O)[C@H]2[C@@]1(C)CC[C@H]1C(=O)O[C@H](c3ccoc3)C[C@]21C,> 50%,112%,673 nM,inactive,167 nM,inactive
COC(=O)[C@@H]1CCC(=O)[C@H]2[C@@]1(C)CC[C@H]1C(=O)O[C@H](c3ccoc3)C[C@]21C,> 50%,124%,266 nM,inactive,51.6 nM,inactive
COC(=O)[C@@H]1C[C@@H](Br)C2=C3[C@@](C)(C[C@H](c4ccoc4)O2)C(C(=O)O)CC[C@]31C (stereo partly drawn),> 50%,–,–,inactive,> 1000 nM,inactive
COC(=O)[C@@H]1C[C@H](I)C(=O)[C@H]2[C@@]1(C)CC[C@H]1C(=O)O[C@H](c3ccoc3)C[C@]21C,> 50%,92%,648 nM,inactive,198 nM,inactive
COC(=O)[C@@H]1C[C@H](Cl)C(=O)[C@H]2[C@@]1(C)CC[C@H]1C(=O)O[C@H](c3ccoc3)C[C@]21C,> 50%,–,–,inactive,> 1000 nM,inactive
COC(=O)[C@@H]1C[C@@H](F)C(=O)[C@H]2[C@@]1(C)CC[C@H]1C(=O)O[C@H](c3ccoc3)C[C@]21C,> 50%,77%,539 nM,inactive,197 nM,inactive
COC(=O)[C@@H]1C[C@@H](Br)C(=O)[C@H]2[C@@]1(C)CC[C@H]1C(=O)O[C@H](c3ccoc3)C[C@]21C,> 50%,90%,282 nM,inactive,42.3 nM,inactive
